According to patent US20150010928A1, “MEANS AND METHODS FOR ASSESSING AN ENDOCRINE DISEASE OR DISORDER” (priority 2012, published 2015):
Marks after values point to notes of the source that are not given here.

Test system: female rats
Assay: Plasma metabolite profiling (GC-MS, LC-MS, SPE-LC-MS) in female rats dosed once daily over 28 days (OECD 407)
Format: in vivo, rat
Conditions: high dose
How it was run: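 Polar and lipid fractions profiled by GC-MS and LC-MS/MRM, steroids by online SPE-LC-MS; pool-normalized data compared to controls by Welch test as treatment ratios and p-values.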

Question: Which results are given for `C[C@]12CCC(=O)C=C1CC[C@@H]1[C@@H]2CC[C@@]2(C)[C@H]1CC[C@]2(C)O` [17-alpha-Methyltestosterone]?
Answer: 3-Hydroxybutyrate (f7, female rats, Table 15a): 1.5*; DAG (C18:1,C18:2) (f7, female rats, Table 15a): 3.01 *; Glutamate (f7, female rats, Table 15a): 1.56 *; Glycine (f7, female rats, Table 15a): 1.28 *; Phosphatidylcholine (C16:0,C20:5) (f7, female rats, Table 15a): 1.22 *; TAG (C16:0,C16:1) (f7, female rats, Table 15a): 3.85 *; TAG (C16:0,C18:1,C18:3) (f7, female rats, Table 15a): 8.68 *; TAG (C16:0,C18:2) (f7, female rats, Table 15a): 4.63 *; TAG (C18:1,C18:2) (f7, female rats, Table 15a): 5.83 *; TAG (C18:2,C18:2) (f7, female rats, Table 15a): 4.67 *; TAG (C18:3, C18:2, C18:1) (f7, female rats, Table 15a): 6.36*; TAG (DAG-Fragment) (f7, female rats, Table 15a): 5.82 *; TAG No 059 (f7, female rats, Table 15a): 3.27 *; Threonic acid (f7, female rats, Table 15a): 1.65 *; trans-4-Hydroxyproline (f7, female rats, Table 15a): 1.4 *; Arginine (f7, female rats, Table 15b): 0.69 *; Campesterol (f7, female rats, Table 15b): 0.65 *; Ceramide (d18:1,C24:0) (f7, female rats, Table 15b): 0.79 *; Lactate (f7, female rats, Table 15b): 0.47 *; Lysine (f7, female rats, Table 15b): 0.49 *; Metanephrine (f7, female rats, Table 15b): 0.78 *; Normetanephrine (f7, female rats, Table 15b): 0.61 *; Phosphatidylcholine (C16:0,C20:5) (f7, female rats, Table 15b): 1.22; Phosphatidylcholine (C16:0,C22:6) (f7, female rats, Table 15b): 0.86 *; Phosphatidylcholine (C18:0, C20:3) (f7, female rats, Table 15b): 0.69 *; Phosphatidylcholine (C18:0,C18:1) (f7, female rats, Table 15b): 0.78 *; Pyruvate (f7, female rats, Table 15b): 0.52 *; Sphingomyelin (d18:1,C23:0) (f7, female rats, Table 15b): 0.56 *; Sphingomyelin (d18:1,C24:0) (f7, female rats, Table 15b): 0.67 *; Urea (f7, female rats, Table 15b): 0.72 *; 3-Hydroxybutyrate (f14, female rats, Table 15a): 2.03 *; DAG (C18:1,C18:2) (f14, female rats, Table 15a): 3.17 *; Glutamate (f14, female rats, Table 15a): 1.43 *; Glycine (f14, female rats, Table 15a): 1.15 *; Phosphatidylcholine (C16:0,C20:5) (f14, female rats, Table 15a): 1.15 *; TAG (C16:0,C16:1) (f14, female rats, Table 15a): 2.59 *; TAG (C16:0,C18:1,C18:3) (f14, female rats, Table 15a): 7.54 *; TAG (C16:0,C18:2) (f14, female rats, Table 15a): 4.63 *; TAG (C18:1,C18:2) (f14, female rats, Table 15a): 4.5 *; TAG (C18:2,C18:2) (f14, female rats, Table 15a): 5.09 *; TAG (C18:3, C18:2, C18:1) (f14, female rats, Table 15a): 5.29 *; TAG (DAG-Fragment) (f14, female rats, Table 15a): 5.43 *; TAG No 059 (f14, female rats, Table 15a): 4.08 *; Threonic acid (f14, female rats, Table 15a): 2.84 *; trans-4-Hydroxyproline (f14, female rats, Table 15a): 1.56 *; Arginine (f14, female rats, Table 15b): 0.67 *; Campesterol (f14, female rats, Table 15b): 0.62 *; Ceramide (d18:1,C24:0) (f14, female rats, Table 15b): 0.7 *; Lactate (f14, female rats, Table 15b): 0.34 *; Lysine (f14, female rats, Table 15b): 0.49 *; Metanephrine (f14, female rats, Table 15b): 0.66 *; Normetanephrine (f14, female rats, Table 15b): 0.65 *; Phosphatidylcholine (C16:0,C20:5) (f14, female rats, Table 15b): 1.15; Phosphatidylcholine (C16:0,C22:6) (f14, female rats, Table 15b): 0.78 *; Phosphatidylcholine (C18:0, C20:3) (f14, female rats, Table 15b): 0.76 *; Phosphatidylcholine (C18:0,C18:1) (f14, female rats, Table 15b): 0.94 *; Pyruvate (f14, female rats, Table 15b): 0.35 *; Sphingomyelin (d18:1,C23:0) (f14, female rats, Table 15b): 0.52 *; Sphingomyelin (d18:1,C24:0) (f14, female rats, Table 15b): 0.6 *; Urea (f14, female rats, Table 15b): 0.63 *; 3-Hydroxybutyrate (f28, female rats, Table 15a): 1.49 *; DAG (C18:1,C18:2) (f28, female rats, Table 15a): 2.97 *; Glutamate (f28, female rats, Table 15a): 1.58 *; Glycine (f28, female rats, Table 15a): 1.29 *; Phosphatidylcholine (C16:0,C20:5) (f28, female rats, Table 15a): 1.17*; TAG (C16:0,C16:1) (f28, female rats, Table 15a): 2.04 *; TAG (C16:0,C18:1,C18:3) (f28, female rats, Table 15a): 9.21*; TAG (C16:0,C18:2) (f28, female rats, Table 15a): 5.09 *; TAG (C18:1,C18:2) (f28, female rats, Table 15a): 5.32 *; TAG (C18:2,C18:2) (f28, female rats, Table 15a): 8.15 *; TAG (C18:3, C18:2, C18:1) (f28, female rats, Table 15a): 7.3*; TAG (DAG-Fragment) (f28, female rats, Table 15a): 6.9 *; TAG No 059 (f28, female rats, Table 15a): 5.2 *; Threonic acid (f28, female rats, Table 15a): 2.29 *; trans-4-Hydroxyproline (f28, female rats, Table 15a): 1.61 *; Arginine (f28, female rats, Table 15b): 0.59 *; Campesterol (f28, female rats, Table 15b): 0.66 *; Ceramide (d18:1,C24:0) (f28, female rats, Table 15b): 0.52 *; Lactate (f28, female rats, Table 15b): 0.52 *; Lysine (f28, female rats, Table 15b): 0.52 *; Metanephrine (f28, female rats, Table 15b): 0.81 *; Normetanephrine (f28, female rats, Table 15b): 0.66 *; Phosphatidylcholine (C16:0,C20:5) (f28, female rats, Table 15b): 1.17; Phosphatidylcholine (C16:0,C22:6) (f28, female rats, Table 15b): 0.79 *; Phosphatidylcholine (C18:0, C20:3) (f28, female rats, Table 15b): 0.68 *; Phosphatidylcholine (C18:0,C18:1) (f28, female rats, Table 15b): 0.81 *; Pyruvate (f28, female rats, Table 15b): 0.4 *; Sphingomyelin (d18:1,C23:0) (f28, female rats, Table 15b): 0.42 *; Sphingomyelin (d18:1,C24:0) (f28, female rats, Table 15b): 0.52 *; Urea (f28, female rats, Table 15b): 0.8*
